Entries after “also recorded” stand apart in the source; their conditions may differ. Where a SMILES comes first, the peptide text is derived from it. [ ]: non-standard residue; d: D form.
Columns and labels:
ABCA1 cells [1] = assay: LDH release from ABCA1 cells; assay type: cell-based, human; conditions: 40 μg/ml for 18 hours
Method: (§1) Cell fixation was performed by a 10 minute treatment with 3% paraformaldehyde in phosphate buffered saline (PBS), followed by three washes with blank media. Lactate dehydrogenase (LDH) release from cells into the media was measured enzymatically (Roche Diagnostics, Indianapolis, Ind.) and expressed, after subtraction of LDH released into blank media, as the percentage of total cell LDH. Total cell LDH was determined after cell solubilization with 1% Triton X-100.
(§2) Incubation of the cells with L-37pA and D-37pA at the maximum concentration and time used for the efflux studies (40 μg/ml for 18 hours) did, however, consistently result in the release of a small amount of LDH from both cell lines (control cells: L-37pA (6.1%±0.2), D-37pA (6.6%±0.1); ABCA1 cells: L-37pA (4.3%±0.04), D-37pA (5.7%±0.1)).

control cells = assay: LDH release from control cells; assay type: cell-based, human; conditions: 40 μg/ml for 18 hours
Method: as §1, §2

[2] = test system: HeLa cells stably transfected with human ABCA1 cDNA (ABCA1 cells); assay: Cholesterol and phospholipid efflux from ABCA1 transfected cells; assay type: cell-based
Method: (§3) Percentage efflux was calculated after subtracting the radioactive counts in the blank media (αMEM plus 1 mg/ml of BSA), and expressed as the percent of total radioactive counts removed from the cells during the efflux period.
as §1

[3] = test system: ABCA1 cells and control cells; assay: Cell morphology by light microscopy during efflux experiments; assay type: cell-based, human
[4] = test system: Tangier disease fibroblast cell line with a truncated non-functional ABCA1 transporter; assay: Cholesterol efflux from Tangier disease fibroblasts; assay type: cell-based, human; conditions: 10 μg/ml, 18 hour
Method: (§4) FIG. 5 is a graph illustrating ABCA1-independent efflux of cholesterol from Tangier disease fibroblasts. Normal skin fibroblasts (open bars) and Tangier disease skin fibroblasts (solid bars) were examined for their ability to efflux cholesterol over an 18 hour period when treated with 10 μg/ml apoA-I (A), 10 μg/ml L-37pA (L), and 10 μg/ml D-37pA (D). Results are expressed as the mean of triplicates±1 SD.
(§5) In order to confirm that the residual lipid efflux from the control cells to L-37pA and D-37pA (see FIG. 1) was not due to a low level of endogenous ABCA1, a Tangier disease fibroblast cell line with a truncated non-functional ABCA1 transporter (Remaley et al., Proc. Natl. Acad. Sci. USA 96:12685-12690, 1999) was evaluated for lipid efflux (FIG. 5). […] Thromb. Vasc. Biol. 17:1813-1821, 1997.

[5] = test system: HeLa cells transfected with only a hygromycin-resistant control plasmid (control cells); assay: Cholesterol and phospholipid efflux from control cells; assay type: cell-based, human; conditions: for cholesterol and phospholipid efflux from control cells (in words): 18 hours
Method: as §3, §1

ABCA1 cells [6] = assay: Two-step competitive binding of radiolabled L-37pA to ABCA1 cells; parameters: species or system human; conditions: 8 μM, the maximum concentration tested; 4° C.
Method: FIGS. 7A-7B are a pair of graphs illustrating the competitive binding of L-37pA peptide to ABCA1 transfected cells and control cells. ABCA1 cells (FIG. 7A) and control cells (FIG. 7B) were incubated for 3 hours at 4° C. with the indicated concentration of the competitor proteins [L-37pA (triangle), D-37pA (open square), apoA-I (closed circle), L2D-37pA (star), and L3D-37pA (open circle)] and were then washed and incubated for 1 hour at 4° C. with 1 μg/ml of radiolabled L-37pA peptide. Results are expressed as the mean of triplicates±1 SD.
The L-37pA peptide was labeled with ^125I using iodine monochloride. Confluent cells grown on 12-well plates were incubated for 3 hours at 4° C. with the indicated concentration of the unlabeled competitor peptide in αMEM media plus 10 mg/ml of BSA (FIG. 7). […] Cells were washed three times, and cell bound counts were determined after solubilization with 0.1 N NaOH.
A two-step sequential competitive binding assay was performed in order to prevent any potentially interfering interaction of the radiolabled peptide with the competitor proteins (Mendez et al., J. Clin. Invest. 94:1698-1705, 1994). The cells were first incubated with the competitor proteins for 3 hours, washed, and then the cell binding of the radiolabled L-37 peptide was measured. […]

Normal skin fibroblasts = assay: Cholesterol efflux from normal skin fibroblasts; assay type: cell-based, human; conditions: 10 μg/ml, 18 hour
Method: as §4, §5

In the case of `CC(C)C[C@@H](NC(=O)[C@@H](Cc1c[nH]c2ccccc12)NC(=O)[C@H](N)CC(=O)O)C(=O)N[C@H](CCCCN)C(=O)N[C@H](C)C(=O)N[C@H](Cc1ccccc1)C(=O)N[C@H](Cc1ccc(O)cc1)C(=O)N[C@H](CC(=O)O)C(=O)N[C@H](CCCCN)C(=O)N[C@@H](C(=O)N[C@H](C)C(=O)N[C@H](CCC(=O)O)C(=O)N[C@H](CCCCN)C(=O)N[C@H](CC(C)C)C(=O)N[C@H](CCCCN)C(=O)N[C@H](CCC(=O)O)C(=O)N[C@H](C)C(=O)N[C@H](Cc1ccccc1)C(=O)N1CCC[C@@H]1C(=O)N[C@H](CC(=O)O)C(=O)N[C@H](Cc1c[nH]c2ccccc12)C(=O)N[C@H](CC(C)C)C(=O)N[C@H](CCCCN)C(=O)N[C@H](C)C(=O)N[C@H](Cc1ccccc1)C(=O)N[C@H](Cc1ccc(O)cc1)C(=O)N[C@H](CC(=O)O)C(=O)N[C@H](CCCCN)C(=O)N[C@@H](C(=O)N[C@H](C)C(=O)N[C@H](CCC(=O)O)C(=O)N[C@H](CCCCN)C(=O)N[C@H](CC(C)C)C(=O)N[C@H](CCCCN)C(=O)N[C@H](CCC(=O)O)C(=O)N[C@H](C)C(=O)N[C@H](Cc1ccccc1)C(=O)O)C(C)C)C(C)C` [D-37pA] (H-[dD][dW][dL][dK][dA][dF][dY][dD][dK][dV][dA][dE][dK][dL][dK][dE][dA][dF][dP][dD][dW][dL][dK][dA][dF][dY][dD][dK][dV][dA][dE][dK][dL][dK][dE][dA][dF]-OH; N-terminus and C-terminus assumed), the “LDH release from ABCA1 cells (percentage of total cell LDH)” value (ABCA1 cells [1]) was 5.7%±0.1 and the “LDH release from control cells (percentage of total cell LDH)” value (control cells) was 6.6%±0.1.
With `CC(C)C[C@H](NC(=O)[C@H](Cc1c[nH]c2ccccc12)NC(=O)[C@H](CC(=O)O)NC(=O)[C@@H]1CCCN1C(=O)[C@H](Cc1ccccc1)NC(=O)[C@H](C)NC(=O)[C@H](CCC(=O)O)NC(=O)[C@H](CCCCN)NC(=O)[C@H](CC(C)C)NC(=O)[C@H](CCCCN)NC(=O)[C@H](CCC(=O)O)NC(=O)[C@H](C)NC(=O)[C@@H](NC(=O)[C@H](CCCCN)NC(=O)[C@H](CC(=O)O)NC(=O)[C@H](Cc1ccc(O)cc1)NC(=O)[C@H](Cc1ccccc1)NC(=O)[C@H](C)NC(=O)[C@H](CCCCN)NC(=O)[C@H](CC(C)C)NC(=O)[C@H](Cc1c[nH]c2ccccc12)NC(=O)[C@@H](N)CC(=O)O)C(C)C)C(=O)N[C@@H](CCCCN)C(=O)N[C@@H](C)C(=O)N[C@@H](Cc1ccccc1)C(=O)N[C@@H](Cc1ccc(O)cc1)C(=O)N[C@@H](CC(=O)O)C(=O)N[C@@H](CCCCN)C(=O)N[C@H](C(=O)N[C@@H](C)C(=O)N[C@@H](CCC(=O)O)C(=O)N[C@@H](CCCCN)C(=O)N[C@@H](CC(C)C)C(=O)N[C@@H](CCCCN)C(=O)N[C@@H](CCC(=O)O)C(=O)N[C@@H](C)C(=O)N[C@@H](Cc1ccccc1)C(=O)O)C(C)C` [L-37pA] (H-DWLKAFYDKVAEKLKEAFPDWLKAFYDKVAEKLKEAF-OH; N-terminus and C-terminus assumed) the “LDH release from ABCA1 cells (percentage of total cell LDH)” value (ABCA1 cells [1]) was 4.3%±0.04 and the “LDH release from control cells (percentage of total cell LDH)” value (control cells) was 6.1%±0.2.
With apolipoprotein A-I [apoA-I] the “time at which cholesterol efflux from ABCA1 cells was first detectable” value ([2]; 10 μg/ml) was 2 h, the “effect of fixation of ABCA1 cells on cholesterol efflux (in words)” value ([2]; 10 μg/ml, 18 hours, fixation with 3% paraformaldehyde) was “completely blocked” and the “cholesterol and phospholipid efflux from ABCA1 cells (in words)” value ([2]; 18 hours) was “do so after transfection with ABCA1”. The “protein concentration at which lipid efflux began to show saturation” value ([2]; 18 hours) was ~10 µg/mL, the “molar concentration at which lipid efflux began to show saturation” value ([2]; corresponds to 10 μg/ml) was 0.36 µM and the “effect on cell morphology” value [3] was “no morphologic effect was observed”. For the same compound, the “cholesterol efflux from Tangier disease fibroblasts” value [4] was “did not efflux significant amounts of cholesterol”, the “cholesterol efflux time course from control cells (in words)” value ([5]; 10 μg/ml, 30 hour efflux period) was “no significant increase above background” and the “cholesterol and phospholipid efflux from control cells (in words)” value [5] was “do not efflux significant amounts of cholesterol and phospholipid; also recorded: unable”. The “cholesterol and phospholipid efflux from control cells (in words)” value ([5]; listed as apoA-1) was “did not cause lipid efflux from control cells”, the “binding of labeled L-37pA to ABCA1 cells blocked by competitor” value (ABCA1 cells [6]) was “approximately 30%” and the “cholesterol efflux from normal fibroblasts” value (Normal skin fibroblasts) was “effluxed cholesterol”.
